The subject of one test is platelets of guinea-pig. The test can be described thus: Inhibition of the platelet aggregation induced by U46619 (BORN test), guinea-pig platelets. The test is classed as cell-based. The settings on record: Cavia porcellus, Platelet, read-out: PLATELET AGGREGATION GUINEA-PIG IC 50. From the text:
(A) Inhibition of the platelet aggregation induced by U46619, a stable analogue of TXA2 (9,11-dideoxy-11α,9α-epoxymethanoprostaglandine F2 α):
The tests determine a concentration of compound which inhibits at 50% (CI50) a liminar aggregation induced by U46619. The activities of the compounds of the present invention are given in example 108.
(§1) The products of examples 1 to 107 have been tested for platelet aggregation on guinea-pig and on the contraction of the aorta in rat as described previously.

The next test has as its system rat aorta. The test can be described thus: Inhibition of the U46619 induced rat aorta vasoconstriction. In kind it is cell-based. The settings on record: Rattus norvegicus, contraction by U46619 (142 nM), rat thoracic aorta, 37° C.; read-out: VASOCONSTRICTION RAT AORTA IC 50. The procedure:
(B) Inhibition of the U46619 induced rat aorta vasoconstriction:
male rats weighing about 300 g are put to death by euthanasia; the thoracic aorta is rapidly taken out. A sample of about 1 cm is cut into a spiral, and placed in a vat containing 20 ml of nutrient medium (Krebs-Henseleit) kept a 37° C. and oxygenated (O2 95%, CO2 5%). The contractions are recorded with an isotonic strain gauge. After a rest of 45 mn, supramaximum contractions are provoked by the addition of an analogue of TXA2 (U46619: 142 nM) to the survival medium. A plateau is generally reached after 10 mn of contact, the latter not exceeding 25 mn. A rest of 30 mn and a plurality of rinses take place after each contraction. The products are added 10 mn after U46619 and allowed to rest 15 mn, after which delay the inhibition is measured. The inhibitory concentration 50 (IC) is determined for each compound studied and on a minimum of 3 aortas. The activities of the compounds of the present invention are described in example 108.
as §1

Here are results for 29 molecules from US5387709A, “Substituted sulfonamides, process of preparation and medicines containing same” (Lipha Lyonnaise Industrielle Pharmaceutique, priority 1990, dated 1995).

Structures are written as SMILES. Where only a bound is given, the exact number is not on record here.

As for `CCCCCCOc1ccc(S(=O)(=O)NCC2(Cc3ccc(CC(=O)O)cc3)CCCC2)cc1` [Example 97, 4-[[1-[[[(4-Hexyloxyphenyl)sulfonyl]amino]methyl]cyclopentyl]methyl]benzeneacetic acid], the IC50 is 5900 nM in the test with platelets of guinea-pig and over 1000 nM in the test with rat aorta.

Consider `O=S(=O)(NCC1(Cc2ccc(CCO)cc2)CCCC1)c1cccc(Cl)c1` [Example 33, 3-Chloro-N-[[1-[[4-(2-hydroxyethyl)phenyl]methyl]cyclopentyl]methyl]benzenesulfonamide], for which the IC50 in the test on platelets of guinea-pig was over 5000 nM; in the test on rat aorta, over 1000 nM.

Take `O=C(O)Cc1ccc(CC2(CNS(=O)(=O)c3c[nH]cn3)CCCC2)cc1` [Example 69, 4-[[1-[[[(Imidazol-4-yl)sulfonyl]amino]methyl]cyclopentyl]methyl]benzeneacetic acid]: the IC50 is over 5000 nM in the test with platelets of guinea-pig and over 1000 nM with rat aorta.

In the case of `O=C(O)Cc1ccc(C[C@@H]2CCCC[C@H]2NS(=O)(=O)c2ccc(Cl)cc2)cc1` (relative stereo) [Example 11, Trans-4-[[2-[[(4-chlorophenyl)sulfonyl]amino]cyclohexyl]methyl]benzeneacetic acid], the IC50 in the test with platelets of guinea-pig was found to be 390 nM; in the test on rat aorta, 50 nM.

For `CC(C)c1ccc(S(=O)(=O)NCC2(Cc3ccc(CC(=O)O)cc3)CCCC2)cc1` [Example 60, 4-[[1-[[[[4-(1-Methylethyl)phenyl]sulfonyl]amino]methyl]cyclopentyl]methyl]benzeneacetic acid], the IC50 in the test with platelets of guinea-pig was over 5000 nM; in the test on rat aorta it was over 1000 nM.

As for `O=C(O)Cc1ccc(CC2(CNS(=O)(=O)c3ccc(OC(F)(F)F)cc3)CCCC2)cc1` [Example 64, 4-[[1-[[[(4-Trifluoromethoxyphenyl)sulfonyl]amino]methyl]cyclopentyl]methyl]benzeneacetic acid], the values for the IC50 with platelets of guinea-pig and in the test on rat aorta were 2600 nM and 130 nM, respectively.

Consider `O=C(O)Cc1cccc(CC2(CNS(=O)(=O)c3ccc(Cl)cc3)CCCC2)c1` [Example 93, 3-[[1-[[[(4-Chlorophenyl)sulfonyl]amino]methyl]cyclopentyl]methyl]benzeneacetic acid], for which the IC50 in the test on platelets of guinea-pig was determined as 1600 nM; in the test with rat aorta, 50 nM.

`O=C(O)Cc1ccc(CC2(CNS(=O)(=O)c3ccc(Cl)c(Cl)c3)CCCC2)cc1` [Example 26, 4-[[1-[[[(3,4-Dichlorophenyl)sulfonyl]amino]methyl]cyclopentyl]methyl]benzeneacetic acid]: the values for the IC50 with platelets of guinea-pig and with rat aorta were 3100 nM and 460 nM, respectively.

`CC(=O)c1ccc(S(=O)(=O)NCC2(Cc3ccc(CC(=O)O)cc3)CCCC2)cc1` [Example 62, 4-[[1-[[[(4-Acetylphenyl)sulfonyl]amino]methyl]cyclopentyl]methyl]benzeneacetic acid]: the IC50 with platelets of guinea-pig came to 3000 nM; in the test on rat aorta, 750 nM.

With `O=S(=O)(O)Cc1ccc(CC2(CNS(=O)(=O)c3ccc(Cl)cc3)CCCC2)cc1` [Example 80, 4-[[1-[[[(4-Chlorophenyl)sulfonyl]amino]methyl]cyclopentyl]methyl]benzenemethanesulfonic acid], the figures for the IC50 in the test on platelets of guinea-pig and in the test on rat aorta were 2900 nM and 190 nM, respectively.

For the molecule `Nc1ccc(S(=O)(=O)NCC2(Cc3ccc(Cc4nnn[nH]4)cc3)CCCC2)cc1` [Example 82, 4-Amino-N-[1-[[[4-[(1H-tetrazol-5-yl)methyl]phenyl]methyl]cyclopentyl]methyl]benzenesulfonamide], the figures for the IC50 with platelets of guinea-pig and with rat aorta were 2000 nM and 1000 nM, respectively.

Turning to `O=C(O)Cc1ccc(CC2(CNS(=O)(=O)c3ccc(Cl)s3)CCCC2)cc1` [Example 68, 4-[[1-[[[(5-Chlorothien-2-yl)sulfonyl]amino]methyl]cyclopentyl]methyl]benzeneacetic acid], the figures for the IC50 in the test on platelets of guinea-pig and in the test with rat aorta were 4000 nM and 400 nM, respectively.

On to `O=C(O)Cc1ccc(CC2(CNS(=O)(=O)c3ccccc3)CCCC2)cc1` [Example 15, 4-[[1-[[[(Phenyl)sulfonyl]amino]methyl]cyclopentyl]methyl]benzeneacetic acid], for which the IC50 in the test with platelets of guinea-pig is 1100 nM; in the test on rat aorta, 300 nM.

`C[S+]([O-])c1ccc(S(=O)(=O)NCC2(Cc3ccc(CC(=O)O)cc3)CCCC2)cc1` (stereo not shown) [Example 84, 4-[[1-[[[(4-Methylsulfinylphenyl)sulfonyl]amino]methyl]cyclopentyl]methyl]benzeneacetic acid]: the IC50 in the test with platelets of guinea-pig is over 5000 nM; in the test on rat aorta, 1000 nM.

In the case of `COc1ccc(S(=O)(=O)NCC2(Cc3ccc(CC(=O)O)cc3)CCCC2)cc1` [Example 65, 4-[[1-[[[(4-Methoxyphenyl)sulfonyl]amino]methyl]cyclopentyl]methyl]benzeneacetic acid], the IC50 in the test on platelets of guinea-pig is 350 nM; in the test on rat aorta, 270 nM.

In the case of `O=C(O)Cc1ccc(CC2(CNS(=O)(=O)c3ccc(Cl)cc3F)CCCC2)cc1` [Example 105, 4-[[1-[[[(4-Chloro-2-fluorophenyl)sulfonyl]amino]methyl]cyclopentyl]methyl]benzeneacetic acid], the IC50 was 570 nM with platelets of guinea-pig and 110 nM in the test on rat aorta.

For `O=C(O)Cc1ccc(CC2(CNS(=O)(=O)c3ccc(Cl)cc3Cl)CCCC2)cc1` [Example 59, 4-[[1-[[[(2,4-Dichlorophenyl)sulfonyl]amino]methyl]cyclopentyl]methyl]benzeneacetic acid], the figures for the IC50 with platelets of guinea-pig and in the test on rat aorta were 1400 nM and 80 nM, respectively.

For the molecule `O=P(O)(O)Cc1ccc(CC2(CNS(=O)(=O)c3ccc(Cl)cc3)CCCC2)cc1` [Example 83, [[4-[[1-[[[(4-Chlorophenyl)sulfonyl]amino]methyl]cyclopentyl]methyl]phenyl]methyl]phosphonic acid], the IC50 in the test on platelets of guinea-pig is 940 nM; in the test with rat aorta, 1000 nM.

For `CC(=O)Nc1ccc(S(=O)(=O)NCC2(Cc3ccc(CC(=O)O)cc3)CCCC2)cc1` [Example 85, 4-[[1-[[[(4-acetamidophenyl)sulfonyl]amino]methyl]cyclopentyl]methyl]benzeneacetic acid], the IC50 in the test on platelets of guinea-pig was 1300 nM; in the test on rat aorta, over 1000 nM.

For `N#Cc1ccc(S(=O)(=O)NCC2(Cc3ccc(CC(=O)O)cc3)CCCC2)cc1` [Example 57, 4-[[1-[[[(4-Cyanophenyl)sulfonyl]amino]methyl]cyclopentyl]methyl]benzeneacetic acid], the IC50 in the test with platelets of guinea-pig was determined as 690 nM; in the test on rat aorta it was 100 nM.

As for `O=C(O)c1ccc(CC2(CNS(=O)(=O)c3ccc(Cl)cc3)CCCC2)cc1` [Example 25, 4-[[1-[[[(4-Chlorophenyl)sulfonyl]amino]methyl]cyclopentyl]methyl]benzoic acid], the values for the IC50 with platelets of guinea-pig and with rat aorta were 1500 nM and 60 nM, respectively.

Turning to `O=C(O)Cc1ccc(CC2(CNS(=O)(=O)c3ccc(Cl)cc3)CCCCCC2)cc1` [Example 73, 4-[[1-[[[(4-Chlorophenyl]sulfonyl]amino]methyl]cycloheptyl]methyl]benzeneacetic acid], the IC50 with platelets of guinea-pig turned out to be 700 nM; with rat aorta, 200 nM.

Regarding `O=C(O)Cc1ccccc1CC1(CNS(=O)(=O)c2ccc(Cl)cc2)CCCC1` [Example 92, 2-[[1-[[[(4-Chlorophenyl)sulfonyl]amino]methyl]cyclopentyl]methyl]benzeneacetic acid], the results for the IC50 in the test with platelets of guinea-pig and in the test on rat aorta were 370 nM and 1000 nM, respectively.

For the molecule `O=C(O)Cc1ccc(CC2(CNS(=O)(=O)c3ccc(Cl)cc3)CC2)cc1` [Example 72, 4-[[1-[[[(4-Chlorophenyl)sulfonyl]amino]methyl]cyclopropyl]methyl]benzeneacetic acid], the IC50 stood at 640 nM in the test on platelets of guinea-pig and 40 nM in the test on rat aorta.

Turning to `O=C(O)Cc1ccc(CC2(CNS(=O)(=O)c3ccc(Cl)cc3)CCOCC2)cc1` [Example 88, 4-[[4-[[[(4-Chlorophenyl)sulfonyl]amino]methyl]tetrahydropyran-4-yl]methyl]benzeneacetic acid], the results for the IC50 in the test on platelets of guinea-pig and in the test with rat aorta were 310 nM and 1000 nM, respectively.

Regarding `CC(=O)c1ccc(CC2(CNS(=O)(=O)c3ccc(Cl)cc3)CCCC2)cc1` [Example 17, N-[[1-[(4-Acetylphenyl)methyl]cyclopentyl]methyl]-4-chlorobenzenesulfonamide], the IC50 in the test on platelets of guinea-pig was over 20000 nM; with rat aorta it was over 1000 nM.

In the case of `O=C(O)Cc1ccc(CC2(CNS(=O)(=O)c3ccc(O)cc3)CCCC2)cc1` [Example 71, 4-[[1-[[[(4-Hydroxyphenyl)sulfonyl]amino]methyl]cyclopentyl]methyl]benzeneacetic acid], the IC50 in the test with platelets of guinea-pig turned out to be 3000 nM; in the test with rat aorta, 40 nM.

In the case of `O=C(O)Cc1ccc(CC2(CNS(=O)(=O)c3cccc(C(F)(F)F)c3)CCCC2)cc1` [Example 56, 4-[[1-[[[(3-Trifluoromethylphenyl)sulfonyl]amino]methyl]cyclopentyl]methyl]benzeneacetic acid], the IC50 is 5000 nM in the test with platelets of guinea-pig and 1000 nM in the test with rat aorta.

Take `O=C(O)Cc1ccc(CC2(CNS(=O)(=O)c3ccc(Cl)cc3)CCCCC2)cc1` [Example 87, 4-[[1-[[[(4-Chlorophenyl)sulfonyl]amino]methyl]cyclohexyl]methyl]benzeneacetic acid]: the values for the IC50 with platelets of guinea-pig and with rat aorta were 4000 nM and 600 nM, respectively.
